One data set has as its system human PBMCs. Put plainly: PBMC cytotoxicity assay. The data set is classed as cell-based. The text has this:
(§1) To evaluate the safety profiles of predicted peptides, we conducted hemolysis and PBMC cytotoxicity assays on three representative candidates (J20: LKIKVHIYRMKR, J28: FRVCYRGICYRR, J39: […]). These peptides were randomly selected from the top 22 peptides predicted by our classification model to outperform the reference peptide IDR‐1018 in antibiofilm activity. All three peptides were synthesized at > 95% purity and tested in standard in vitro assays.

For a further data set, the system named is human red blood cells. Put plainly: Hemolysis assay. The data set is classed as cell-based.
Source text: as §1

For data set [1], the system named is methicillin‐resistant Staphylococcus aureus (MRSA). The conditions noted are these: read-out: IC50 antimicrobial (planktonic); MRSA in 10% tryptic soy broth + 0.1% glucose, overnight 37°C, growth by OD600; peptide array samples; nplr fit. How it is done: (§2) Peptide arrays on cellulose membranes were made by Kinexus Bioinformatics Corporation (Vancouver, BC, Canada) and were obtained as cleaved free peptide associated with the punched‐out spot of the cellulose membrane. Stock solutions of the peptide array samples were prepared by dissolving the free peptide in 200 µL of endotoxin‐free sterile water, incubating at room temperature for ~ 1 h, and then transferring the resulting peptide solution to a sterile microfuge tube for subsequent antimicrobial activity assays. The concentration of the stock peptide array samples was determined by measuring the absorbance at 280 nm of the solution (in duplicate) on a BioTek Epoch Microplate Spectrophotometer using the Take3TM Multi‐Volume Plate. A theoretical extinction coefficient of each peptide was determined based on the number of Trp and Try residues1 in the peptide sequence according to the formula: (#Trp) × 5500 M^− ^1 cm^− ^1 + (#Tyr) × 1490 M^− ^1 cm^− ^1, and the concentration of the peptide in solution was calculated according to the Beer–Lambert law. Any Cys residues within the peptide samples were assumed not to be present in a disulfide bond, so their contribution to the extinction coefficient at 280 nm was ignored.
(§3) Peptides were synthesized on peptide arrays and tested as described previously. Briefly, the antimicrobial activity and biofilm inhibition activity of the peptide array samples were assessed against methicillin‐resistant Staphylococcus aureus (MRSA). Briefly, twofold serial dilutions of the peptide array sample (10 μL final volume) were prepared in 96‐well plates and then 90 μL of a 1:100 dilution of an overnight culture of MRSA diluted in 10% tryptic soy broth supplemented with 0.1% glucose was added to each well and the plates were incubated overnight at 37°C. The following day, bacterial growth was quantified by measuring the optical density at 600 nm (OD600) of each sample well while the amount of biofilm was quantified by rinsing the wells of the plate with distilled water and staining the adhered biomass with 0.1% crystal violet solution. The amount of adhered biomass was quantified by recording the absorbance at 595 nm (A595). Dose–response curves were drawn for each peptide based on the bacterial growth (OD600) or biofilm inhibition (A595) and normalizing the percent of peptide inhibition relative to untreated bacteria (100% growth) or sterile media (0% growth). The concentration of peptide required to inhibit 50% of bacterial or biofilm growth (IC50) was calculated by nonlinear regression fit of the dose–response curves using the N‐Parameter Logistic Regression (nplr) package.

Data set [2] has as its system methicillin‐resistant Staphylococcus aureus (MRSA) biofilm. The conditions noted are these: read-out: IC50 Biofilm; MRSA in 10% tryptic soy broth + 0.1% glucose, overnight 37°C, adhered biomass stained with 0.1% crystal violet, A595; peptide array samples; nplr fit. How it is done:
as §2, §3

In the next data set the test system is biofilm. Put plainly: Minimum biofilm inhibitory concentration (MBIC). It is filed as cell-based. The conditions noted are these: peptides > 95% purity; Table S1.

pIC50: −log10 of the molar value. Read-outs that look alike come from different tables or passages of the source. Ends that are not written are not given here. Peptide text beside a SMILES is read from it.

Regarding `CC[C@H](C)[C@H](NC(=O)CNC(=O)[C@H](CCCNC(=N)N)NC(=O)[C@H](Cc1ccc(O)cc1)NC(=O)[C@H](CS)NC(=O)[C@@H](NC(=O)[C@H](CCCNC(=N)N)NC(=O)[C@@H](N)Cc1ccccc1)C(C)C)C(=O)N[C@@H](CS)C(=O)N[C@@H](Cc1ccc(O)cc1)C(=O)N[C@@H](CCCNC(=N)N)C(=O)N[C@@H](CCCNC(=N)N)C(N)=O` [compound 28] (H-FRVCYRGICYRR-NH2; N-terminus assumed), the “PBMC IC50 (cytotoxicity)” value in the data set with human PBMCs was > 250 µg/mL. The “Hemolysis IC50” value with human red blood cells (red cells of human) is > 250 µg/mL.

Take GLKSFARVLKKI-NH2 [compound 33]: in data set [1], the pIC50 is 5.94. Regarding KLVRRKGRLYVI-NH2 [compound 50], the pIC50 in data set [2] was 6.40.

For the molecule LFKFLGKKVLKT-NH2 [compound 9], the pIC50 in data set [2] is 6.33. LKIKVHIYRMKR-NH2 [compound 20]: the “PBMC IC50 (cytotoxicity)” value in the data set on human PBMCs amounted to 166.1 µg/mL. Also, the pIC50 in data set [2] was 6.46. Also, the “Biofilm-inhibitory concentration (MBIC)” value in the data set on biofilm is 1 to 4 µg/mL. Moreover, the “Hemolysis IC50” value in the data set with human red blood cells (red cells of human) is > 250 µg/mL. On to RALKKIIKRLCR-NH2 [compound 86], for which the pIC50 is 6.42 in data set [2] and 6.15 in data set [1]. On to RARGRKRLVVTI-NH2 [compound 40], for which the pIC50 in data set [2] is 6.52. Take RGFVRLKKWFNI-NH2 [compound 39]: the “PBMC IC50 (cytotoxicity)” value in the data set with human PBMCs (human PBMCs, peptides > 95% purity) is > 250 µg/mL. Further, the pIC50 in data set [2] is 6.64. In the data set with biofilm, the “Biofilm-inhibitory concentration (MBIC)” value is 1 to 4 µg/mL. Also, the “Hemolysis IC50” value in the data set on human red blood cells (human erythrocytes, concentration range 1–256 μg/mL, peptides > 95% purity) was > 250 µg/mL. Turning to RLHGFLIRMRTR-NH2 [compound 44], the pIC50 in data set [1] is 5.92. Same read-out and setting: under RRRAKGRIRLIV-NH2 [compound 62] stands 6.05.

Turning to RVVRRKGRIYIL-NH2 [compound 81], in data set [2], the pIC50 is 6.36. For the molecule “VRLIVAVRIWRR-NH2 [IDR‐1018, reference compound]”, the results for the pIC50 in data set [2] and in data set [1] were 5.85 and 5.76, respectively.

In the case of WKKKGRMRWKWI-NH2 [compound 10], the pIC50 in data set [2] is 6.57.

For the origin of these results see PMC13087548, “The Use of DeepQSAR Models for the Discovery of Peptides With Enhanced Antimicrobial and Antibiofilm Potential” (Molecular Informatics, 2026).
